Here are results for one compound from patent publication US6469013B2, “Therapeutic compounds” (Parker Hughes Institute, priority 1998, dated 2002).

For one assay, the system named is NOD-scid/scid females. Kind of assay: Adoptive transfer of diabetes. The note with it: 50 mg/kg daily, up to week 5 post transfer. The format is in vivo, mouse. The procedure:
Single-cell suspensions of splenic leucocytes pooled from 8-10 diabetic NOD females were prepared by passage through Nitex 110 mesh, and red blood cells were lysed in 10× Gey's solution. Aliquots of 1×10^7 splenocytes were adoptively transferred intravenously into 4-week-old NOD/Lt-scid/scid females (The Jackson Laboratory, Bar Harbor, Me.). […] Mice were monitored for diabetes development by testing urinary glucose every week from second week after the transfer by Chemstrip uGK strips (Boehringer Mannheim, Indianapolis, Ind.). Mice with glycosuria over 500 mg/dl (+++) on consecutive weekly tests were considered diabetic, with the first detection of chronic glycosuria taken as the date of IDDM onset.

Assay [1] concerns HaCaT human epidermal cells. In words: UVB-induced PGE2 release (EIA). It is filed as cell-based. The note with it: light or radiation study, UVB 25 mj/cm^2, 6 h, read-out: inhibition in UVB light induced prostaglandin release. The text has this:
HaCaT, which is a spontaneously transformed human epidermal cell line (16) was maintained in Dulbecco's modified Eagle's medium (DMEM) supplemented with 10% fetal bovine serum (Summit Biotech, Ft. Collins, Colo.).
A bank of 8-FSX24T12/HO/UVB lamps (National Biological Corporation, Twinsburg, Ohio) that emits light predominantly in the UVB range, 280-320 nm was used to irradiate mice and cell cultures. The irradiance of UVB lamps was always measured before irradiation using a UVB meter (model—500C obtained from National Biological Corporation, Twinsburg, Ohio). The dose of UVB light used to irradiate cultures was 25 mj/cm^2. Anesthetized mice received UVB radiations to a 2.0 cm^2 area on their dorsal surface. […]
Confluent HaCaT cells cultured in 24-well culture dishes were washed three times with serum-free DMEM containing 1% bovine serum albumin (BSA) (Cayman chemicals, Ann Arbor, Mich.) and incubated with 3-30 μM compound compound 6 for 1 hour at 37° C. After incubation the cells were washed twice with PBS, and either exposed to 25 mj/cm^2 UVB light or stimulated with 50 ng/ml rhEGF, and fed with serum-free DMEM containing 1% BSA. compound 6 was readministered and the cells were incubated for 6 h at 37° C. […] Cellular protein was determined using the Pierce's BCA protein assay method (Smith, P. K., et al., 1985, Anal Biochem. 150 (1):76-85).

The test system of assay [2] is NALM-6 human leukemia cells. Kind of assay: Mitochondrial membrane potential (DiIC1, JC-1 flow cytometry). It is filed as cell-based. The note with it: for EC50: Homo sapiens, NALM-6. The procedure:
Mitochondrial membrane potential (Δψm) was measured using two dyes including a lipophillic cation 5,5′,6,6′-tetrachloro-1,1′,3,3′-tetraethlybenzimidazolylcarbocyanine iodide (JC-1) and a cyanine dye, 1,1′,3,3,3′,3′-hexamethylindodicarbocyanine iodide (DiIC1 (27-29)) obtained from Molecular Probes (Eugene, Oreg.). JC-1 is a monomer at 527 nm after being excited at 490 nm; with polarization of Δψm, J-aggregates are formed that shift emission to 590 nm (30). This can be detected on a flow cytometer by assessing the green signal (at 527 nm) and green-orange signal (at 590 nm) simultaneously, creating an index of the number of cells polarized and depolarized mitochondria. DiIC1, a cyanine dye which is amphioatheic and cationic, concentrates in energized mitochondria and has been used in a variety of studies to measure the mitochondrial membrane potential (Fujii, H., et al., Histochem J. 29: 571-581, 1997; Mancini, M., et al., J. Cell Biol. 138: 449-469, 1997; and Petit, P. X., et al., J. Cell Biol. 130: 157-167, 1995). Cells were also stained with DiIC1 at 40 nM concentration for 30 min in the dark as described for JC-1. The cells were analyzed using a Vantage Becton Dickinson (San Jose, Calif.) cell sorter equipped with HeNe laser with excitation at 635 nm and the fluorescence was collected at 666 nm.
To test the cytotoxicity of compound 6 against JAK-3 expressing human leukemia cells, leukemic cells were exposed to this JAK3 inhibitor and monitored for apoptosis-associated changes in mitochondrial membrane potential (Δψm) and mitochondrial mass using specific fluorescent mitochondrial probes and multiparameter flow cytometry. To measure changes in Δψm, DiIC1 (which accumulates in energized mitochondria) was used, whereas the mitochondrial mass was determined by staining the cells with NAO, a fluorescent dye that binds to the mitochondrial inner membrane independent of energetic state. Treatment of NALM-6 leukemia cells with compound 6 at 7.4 μg/ml (25 μM) to 60 μg/ml (200 μM) for 24 h or 48 h increased the number of depolarized mitochondria in a concentration- and time-dependent manner as determined by flow cytometry using DiIC1 (27-29) (FIG. 7A). […] To further confirm this relative change in Δψm, we used JC-1, a mitochondrial dye, which normally exists in solution as a monomer emitting green fluorescence and assumes a dimeric configuration emitting red fluorescence in a reaction driven by mitochondrial transmembrane potential (Smiley, S. T., et al., Proc. Natl. Acad. Sci. U.S. A. 88: 3671-3675, 1991). Thus, the use of JC-1 allows simultaneous analysis of mitochondrial mass (green fluorescence) and mitochondrial transmembrane potential (red/orange fluorescence). After treatment of NALM-6 cells with compound 6 at increasing concentrations ranging from 25 μM to 200 μM and with increasing duration of exposure of 24 h or 48 h, we observed a progressive dissociation between Δψm and mitochondrial mass, with decrement in JC-1 red/orange fluorescence without a significant corresponding drop in JC-1 green fluorescence (FIG. 7C&D).
Background: In flow cytometry, cells or beads pass a laser one at a time.

Molecules are shown by their SMILES. Like-named read-outs stand apart in the source and are kept apart here.

`COc1cc2ncnc(Nc3ccc(O)cc3)c2cc1OC` [WHI-P131, 4-(4′-hydroxyl-phenyl)-amino-6,7-dimethoxyquinazoline]: the “diabetic mice post adoptive transfer” value with NOD-scid/scid females was found to be 8%. Moreover, in assay [1], the inhibition – broadly, the share of the control response that was lost under treatment – at 30 µM is roughly 90%. Also, the “JC-1 green fluorescence (mitochondrial mass)” value in assay [2] (200 μM × 48 hours) was found to be 99.8%. For the same compound, in assay [2] (200 μM, 48 hours), the “fraction of DiIC1-negative cells with depolarized mitochondria” value is 81.6%. Also, the “fraction of JC-1 red/orange fluorescence-negative cells” value in assay [2] (200 μM, 48 hours) is on record as 16.9%. Also, the EC50 in assay [2] (24 hour treatment, read-out: EC50, depolarization of mitochondria (decreased DiIC1 staining)) was determined as 79.3 µM; in assay [2] (24 hour treatment, read-out: EC50, depolarization of mitochondria (decreased JC-1 red/orange fluorescence)), 94.2 µM; in assay [2] (48 hour treatment, read-out: EC50, depolarization of mitochondria (decreased DiIC1 staining)), 58.4 µM; in assay [2] (48 hour treatment, read-out: EC50, depolarization of mitochondria (decreased JC-1 red/orange fluorescence)), 50.4 µM.
